Measured values published in patent US6951881B2, “(1-substituted-indol-3-yl) alkylidenehydrazinecarboximidamide derivatives as 5-hydroxytryptamine-6 ligands” (Wyeth, priority 2002, dated 2005).
Where two headings read alike, the source gives them in different places.

Target: T1, human cloned 5-HT6 receptors (Homo sapiens, UniProt P50406)
T1 construct: expressed in transfected cells; host or cells: HeLa cells
Assay type: binding
Settings: for inhibition at 0.01 µM: test compound dose 10 nM

[1] = test compound dose 1000 nM, displacement of [3H]-LSD
[2] = test compound dose 100 nM, displacement of [3H]-LSD, read-out: % Inhibition

T1 sequence (P50406 whole entry): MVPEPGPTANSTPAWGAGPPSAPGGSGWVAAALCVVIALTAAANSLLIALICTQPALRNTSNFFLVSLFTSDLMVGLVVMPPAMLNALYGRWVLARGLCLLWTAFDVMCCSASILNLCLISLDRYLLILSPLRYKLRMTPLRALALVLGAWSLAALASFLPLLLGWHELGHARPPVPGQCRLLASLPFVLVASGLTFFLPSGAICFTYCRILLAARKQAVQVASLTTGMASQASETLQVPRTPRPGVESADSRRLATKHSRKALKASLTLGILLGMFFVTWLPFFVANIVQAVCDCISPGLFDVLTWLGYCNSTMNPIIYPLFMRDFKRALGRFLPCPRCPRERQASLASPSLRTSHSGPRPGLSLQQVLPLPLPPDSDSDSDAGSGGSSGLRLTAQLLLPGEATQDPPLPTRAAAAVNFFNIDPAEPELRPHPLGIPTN

| Molecule | inhibition at 0.1 µM [2] [%] | also measured |
| --- | --- | --- |
| CN(N=C1CCCc2[nH]c3ccc(F)cc3c21)C1=NCCN1 [Example 158, 6-fluoro-1,2,3,9-tetrahydro-4H-carbazol-4-one 4,5-dihydro-1H-imidazol-2-yl(methyl)hydrazone] |  | inhibition at 1 µM [1]: 68.7% |
| N=C(N)NN=C1CCCc2[nH]c3ccc(Br)cc3c21 [Example 159, 2-(6-bromo-1,2,3,9-tetrahydro-4H-carbazol-4-ylidene)hydrazinecarboximidamide] |  | inhibition at 0.01 µM (displacement of [3H]-LSD): 61.1% |
| CN(N=C1CCCc2[nH]c3ccc(Br)cc3c21)C1=NCCN1 [Example 160, 6-bromo-1,2,3,9-tetrahydro-4H-carbazol-4-one 4,5-dihydro-1H-imidazol-2-yl(methyl)hydrazone] |  | inhibition at 1 µM [1]: 76% |
| N=C(N)NN=C1CCCc2[nH]c3ccccc3c21 [Example 161, 2-(1,2,3,9-tetrahydro-4H-carbazol-4-ylidene)hydrazinecarboximidamide] |  | inhibition at 0.01 µM (displacement of [3H]-LSD): 39.5% |
| COc1ccc2[nH]c3c(c2c1)C(=NNC(=N)N)CCC3 [Example 162, N′-(6-methoxy-1,2,3,9-tetrahydro-4H-carbazol-4-ylidene)carbonohydrazonic diamide] |  | Ki ([3H]-LSD 3.0 nM, Hela cell membranes, read-out: 5-HT6 Binding Ki): 4.7 nM; % Inhibition [1]: 98% |
| Cc1ccc2[nH]c3c(c2c1)C(=NNC(=N)N)CC(C)(C)C3 [Example 163, 2-(2,2,6-trimethyl-1,2,3,9-tetrahydro-4H-carbazol-4-ylidene)hydrazinecarboximidamide] | 38.5 |  |
| CC(C)c1ccc2[nH]c3c(c2c1)C(=NNC(=N)N)CC(C)(C)C3 [Example 166, 2-(6-isopropyl-2,2-dimethyl-1,2,3,9-tetrahydro-4H-carbazol-4-ylidene)hydrazinecarboximidamide] | 27.3 |  |
| CC(C)c1ccc2[nH]c3c(c2c1)C(=NNC(=N)N)CC(c1ccccc1)C3 (stereo not shown) [Example 167, 2-(6-isopropyl-2-phenyl-1,2,3,9-tetrahydro-4H-carbazol-4ylidene)hydrazinecarboximidamide] | 35.2 |  |
| CC1(C)CC(=NNC(=N)N)c2c([nH]c3ccc(OC(F)(F)F)cc23)C1 [Example 168, 2-[2,2-dimethyl-6-(trifluoromethoxy)-1,2,3,9-tetrahydro-4H-carbazol-4-ylidene]hydrazinecarboximidamide] | 26 |  |
| N=C(N)NN=C1CC(c2ccccc2)Cc2[nH]c3ccc(Br)cc3c21 (stereo not shown) [Example 170, 2-(6-bromo-2-phenyl-1,2,3,9-tetrahydro-4H-carbazol-4-ylidene)hydrazinecarboximidamide] | 24.4 |  |
| CC1(C)CC(=NNC(=N)N)c2c([nH]c3ccc(Cl)cc23)C1 [Example 171, 2-(6-chloro-2,2-dimethyl-1,2,3,9-tetrahydro-4H-carbazol-4-ylidene)hydrazinecarboximidamide] | 30.7 |  |
| Cc1ccc2[nH]c3c(c2c1)C(=NN(C)C1=NCCN1)CC(C)(C)C3 [Example 174, 2,2,6-trimethyl-1,2,3,9-tetrahydro-4H-carbazol-4-one 4,5-dihydro-1H-imidazol-2-yl(methyl)-hydrazone] | 25.5 |  |
| Cc1ccc2[nH]c3c(c2c1)C(=NN(C)C1=NCCN1)CC(c1ccccc1)C3 (stereo not shown) [Example 175, 6-methyl-2-phenyl-1,2,3,9-tetrahydro-4H-carbazol-4-one 4,5-dihydro-1H-imidazol-2-yl(methyl)-hydrazone] | 18.6 |  |
| CC(C)c1ccc2[nH]c3c(c2c1)C(=NN(C)C1=NCCN1)CC(c1ccccc1)C3 (stereo not shown) [Example 178, 6-isopropyl-2-phenyl-1,2,3,9-tetrahydro-4H-carbazol-4-one 4,5-dihydro-1H-imidazol-2-yl-(methyl)hydrazone] | 25.6 |  |
| CC(C)c1ccc2[nH]c3c(c2c1)C(=NN(C)C1=NCCN1)CCC3 [Example 179, 6-isopropyl-1,2,3,9-tetrahydro-4H-carbazol-4-one 4,5-dihydro-1H-imidazol-2-yl(methyl)-hydrazone] | 5.6 |  |
| CN(N=C1CC(c2ccccc2)Cc2[nH]c3ccc(F)cc3c21)C1=NCCN1 (stereo not shown) [Example 180, 6-fluoro-2-phenyl-1,2,3,9-tetrahydro-4H-carbazol-4-one 4,5-dihydro-1H-imidazol-2-yl(methyl)-hydrazone] | 11.5 |  |
| N=C(NN=C1CCCc2[nH]c3ccc(Cl)cc3c21)NC1CCCC1 [Example 183, 2-(6-chloro-1,2,3,9-tetrahydro-4H-carbazol-4-ylidene)-N-cyclopentylhydrazinecarboximidamide] | 55.3 |  |
| CN(N=C1CCc2[nH]c3ccc(Cl)cc3c21)C1=NCCN1 [Example 184, 7-Chloro-3,4-dihydrocyclopenta[b]indol-1(2H)-one 4,5-dihydro-1H-imidazol-2-yl-(methyl)hydrazone] |  | inhibition at 0.1 µM: 19.8% |
| N-benzyl-2-(6-chloro-1,2,3,9-tetrahydro-4H-carbazol-4-ylidene)hydrazinecarboximidamide [Example 182] |  | % Inhibition (test compound dose 100 nM, displacement of [3H]-LSD): 47.3% |

More lines, main results first:

| inhibition at 0.1 µM [2] [%] | Molecule | also measured |
| --- | --- | --- |
| 27.6 | Cc1ccc2[nH]c3c(c2c1)C(=NNC(=N)N)CC(c1ccccc1)C3 (stereo not shown) [Example 164, 2-(6-methyl-2-phenyl-1,2,3,9-tetrahydro-4H-carbazol-4-ylidene)hydrazinecarboximidamide] |  |
| 57.2 | Cc1ccc2[nH]c3c(c2c1)C(=NNC(=N)N)CCC3 [Example 165, 2-(6-methyl-1,2,3,9-tetrahydro-4H-carbazol-4-ylidene)hydrazinecarboximidamide] |  |
| 33.9 | CC1(C)CC(=NNC(=N)N)c2c([nH]c3ccc(Br)cc23)C1 [Example 169, 2-(6-bromo-2,2-dimethyl-1,2,3,9-tetrahydro-4H-carbazol-4-ylidene)hydrazinecarboximidamide] |  |
| 24.6 | N=C(N)NN=C1CC(c2ccccc2)Cc2[nH]c3ccc(Cl)cc3c21 (stereo not shown) [Example 172, 2-(6-chloro-2-phenyl-1,2,3,9-tetrahydro-4H-carbazol-4-ylidene)hydrazinecarboximidamide] |  |
| 26.7 | CC1(C)CC(=NNC(=N)N)c2c([nH]c3ccc(F)cc23)C1 [Example 173, 2-(6-fluoro-2,2-dimethyl-1,2,3,9-tetrahydro-4H-carbazol-4-ylidene)hydrazinecarboximidamide] |  |
| 24.2 | Cc1ccc2[nH]c3c(c2c1)C(=NN(C)C1=NCCN1)CCC3 [Example 176, 6-methyl-1,2,3,9-tetrahydro-4H-carbazol-4-one 4,5-dihydro-1H-imidazol-2-yl(methyl)hydrazone] |  |
| 22.9 | CC(C)c1ccc2[nH]c3c(c2c1)C(=NN(C)C1=NCCN1)CC(C)(C)C3 [Example 177, 6-isopropyl-2,2-dimethyl-1,2,3,9-tetrahydro-4H-carbazol-4-one 4,5-dihydro-1H-imidazol-2-yl(methyl)hydrazone] |  |
| 47 | CCCCCNC(=N)NN=C1CCCc2[nH]c3ccc(Cl)cc3c21 [Example 181, 2-(6-chloro-1,2,3,9-tetrahydro-4H-carbazol-4-ylidene)-N-pentylhydrazinecarboximidamide] |  |
